# What was measured:
# [1] = target: T1, HTRA1 (Homo sapiens, UniProt Q92743); assay: Co-incubation of recombinant TSP1 or TSP2 with recombinant HTRA1 (Coomassie staining, Western blot); type: biochemical; settings: co-incubation at 37° C. for 24 h, Coomassie gel
# T1 construct: purchased R & D
# Protocol: WB analysis was performed using a monoclonal anti-TSP1 antibody (Abeam), as previously described (Houssier et al., PLoS Med. 2008, 5:e39). RT-PCRs primers were ordered from Taqman, reference: Hs01016151_m1.
# Western blot analysis of the proteins confirmed the disappearance of the whole sized TSP1 and the appearance of several smaller bands in the co-incubated condition (FIG. 3A). […] Next the functionality of rTSP1 and HTRA1-digested TSP1 was analyzed in laser-induced subretinal inflammation in vivo. […] Accordingly, associated choroidal neovascularization, measured as the surface covered by CD102^−CNV on choroidal flatmounts at d7, underwent the same differences (FIG. 3D).
# [2] = tested on: microglial cells; assay: Subretinal adoptive transfer and clearance of CFSE-labeled microglial cells; type: in vivo, mouse; settings: 24 h after subretinal transfer into wildtype mice, co-injected TSP1 10 μg/ml
# Protocol: Microglial cells were prepared from PBS-perfused mice. After dissociation of brain or retina with Neural Dissociation Kit Papain (miltenyi Biotech), 70 μm filtered cell suspensions were washed and resuspended in 75% isotonic Percoll (Percoll Plus, GE Healthcare), overlayed with 25% Percoll and PBS. Cells were centrifuged at 1000 g for 30 min at […]. The ring at the 75%/25% interface was collected, washed with PBS and centrifuged.
# According to Levy et al., (EMBO Mol Med. 2015, 7:211-226), brain microglia of the indicated mouse strains were sorted as describe above, labeled in 10 μM CFSE (Life Technologies), washed and resuspended in PBS, 12000 cells (4 μL) were injected using glass microcapillaries (Eppendorf) and a microinjector in the subretinal space of anesthetized 10-14 weeks old wildtype mice. A hole was pierced with the glass capillary prior to the subretinal injection to avoid intra-ocular pressure increase and to allow retinal detachment with 4 μL of solution. The subretinal injection was verified by fundoscopy. In specific experiments, cells were co-injected with recombinant human TSP1 (10 μg/ml, R&D Systems), Eyes were enucleated after 24 hours, fixed in PFA 4% 30 minutes and labeled with DAPI. Eyes with hemorrhages were discarded. CFSE+cells in the subretinal space were quantified on flatmounts on the RPE side of the retina and on the apical side of the RPE.
# [3] = tested on: recruited monocyte-derived inflammatory macrophages (recMφ); assay: Thioglycollate-induced peritonitis; type: in vivo, mouse; settings: single intra-peritoneal injection at day 1, observed at day 2
# Protocol: Mouse peritoneal exudate cells (PECs) were elicited by i.p. injection of 0,5 ml 3% thioglycollate (T9032, Sigma) into 10 weeks old male C57BL/6J and Cd47^−/− mice. After 1 day, PECs were isolated by flushing of the peritoneum with ice-cold PBS, Mφs were negatively selected by magnetic sorting following the manufacturers protocol (EasySep Mouse Monocyte Enrichment Kit, Stemcell Technologies), resuspended in X-VIVO 15 medium (Lonza), and plated in Lab-Tek® Chamber Slide™ (Nunc®).
# To test whether CD47 influences inflammation resolution in other pathological contexts, a model of acute thioglycollate-induced peritonitis was used, characterized by an early accumulation of neutrophils, followed by recruited monocyte-derived inflammatory macrophages (recMφ), both experiencing an apoptosis-driven elimination at different kinetics (Gautier et al., Blood. 2013, 122:2714-2722).
# [4] = target: CD47 (Homo sapiens, UniProt Q08722); settings: comparison in words, no test described; cited from earlier work
# CD47, sequence (Q08722 19-323, species assumed): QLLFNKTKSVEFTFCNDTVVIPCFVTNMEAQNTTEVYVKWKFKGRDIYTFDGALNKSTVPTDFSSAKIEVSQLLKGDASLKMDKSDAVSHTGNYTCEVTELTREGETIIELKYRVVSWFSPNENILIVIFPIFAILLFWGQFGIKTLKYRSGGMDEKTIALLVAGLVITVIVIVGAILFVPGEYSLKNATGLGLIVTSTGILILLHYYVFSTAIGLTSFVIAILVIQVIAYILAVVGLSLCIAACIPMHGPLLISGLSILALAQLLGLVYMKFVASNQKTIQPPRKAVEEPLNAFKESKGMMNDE
# [5] = tested on: subretinal IBA-1+ mononuclear monocytes; assay: Laser-induced subretinal inflammation in wildtype- and Tsp1-/- mice; type: in vivo, mouse; settings: wildtype- and Tsp1-/- mice, intravitreal at d3, d7; FIG. 3 statistics given for Tsp1-/- mice vs PBS
# Protocol: (§1) Laser-coagulations were performed with a 532 nm ophtalmological laser mounted on an operating microscope (Vitra Laser, 532 nm, 450 mW, 50 ms, and 250 μm): Intravitreal injections of 2 μl of HTRA1 and/or TSP1 were performed using glass capillaries (Eppendorf) and a micro injector. The 2 μl injection solution contained 50 μg/ml TSP1 and HTRA1, corresponding to an intraocular concentration of 5 μg/ml of each protein assuming their dilution by approximately 1/10th in the intra-ocular volume. […] A volume of 2 μl of a 100 μM solution of either PBS, recombinant TSP1 (10 μg/ml), the 4NGG control peptide or the CD47-activating peptide PKT16 (200 μM) was injected at day 4 (when MP infiltration is maximal) and day 7 after the injury and evaluated subretinal inflammation on flatmounted RPE/choroidal flatmounts at day 10.
# (§2) Eyes were enucleated, fixed in 4% PFA 30 minutes and sectioned at the limbus; the cornea and lens were discarded. […] Choroids and retinas were flatmounted and viewed with a fluorescence microscope DM5500B (Leica). IBA-1+ cells were counted on whole RPE/choroidal flatmounts and on the outer segment side of the retina. […]
# [6] = tested on: subretinal IBA-1+ MPs; assay: Laser-injury model in Cx3cr1GFP/GFP mice; type: in vivo, mouse; settings: 2 μl intravitreal at day 4 and day 7, day 10, vs PBS or 4NGG
# Protocol: as §1, §2
# T1 sequence (Q92743 23-480): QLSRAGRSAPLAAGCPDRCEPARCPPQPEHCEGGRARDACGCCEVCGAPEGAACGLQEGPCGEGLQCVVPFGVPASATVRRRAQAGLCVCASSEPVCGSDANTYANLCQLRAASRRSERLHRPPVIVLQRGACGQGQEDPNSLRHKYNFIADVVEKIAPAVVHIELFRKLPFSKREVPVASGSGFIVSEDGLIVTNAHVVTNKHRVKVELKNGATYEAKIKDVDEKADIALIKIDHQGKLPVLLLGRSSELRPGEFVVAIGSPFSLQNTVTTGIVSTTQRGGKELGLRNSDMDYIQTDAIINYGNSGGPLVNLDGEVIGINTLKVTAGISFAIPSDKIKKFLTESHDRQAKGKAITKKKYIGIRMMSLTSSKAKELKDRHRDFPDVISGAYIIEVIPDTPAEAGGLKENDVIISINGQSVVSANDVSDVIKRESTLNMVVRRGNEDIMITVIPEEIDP
substance,measurement,setting,value
"recombinant TSP1: recombinant human TSP1 (R&D Systems), natural ligand and agonist of CD47",degradation by recombinant HTRA1,[1],degrades
same,elimination of Cd47-/- microglial cells,[2]; CFSE+ Cd47-/- microglial cells,no effect
same,elimination of Tsp1-/- microglial cells,[2]; CFSE+ Tsp1-/- microglial cells,reversed the phenotype
same,elimination of wildtype microglial cells,[2]; CFSE+ wildtype microglial cells,very significantly accelerated the elimination
same,elimination of recMφs,[3],significantly accelerated the elimination
same,half maximal effective concentration (EC50) relative to CD47-activating peptides or TSP2,[4],much lower
same,reduction of laser-induced subretinal inflammation,[5],significantly reduces
same,elimination of subretinal IBA-1+ MPs adjacent to the laser impact,[6],eliminated significantly more efficiently
